Key:
HLA-DRB1*0401 = HLA-DRB1*0401 (Homo sapiens (Human), UniProt P01903+P01911, A100K/A169T/DEL228-266/F76Y/I96L/K127E/L162R/M171V/N62H/P40V/Q125Y/R42H/S133A/S149N/S66Y/V115G/V209L/W38E); assay: HLA-DR4 HTRF assay; type: binding; conditions: inhibition of loading of Alexa Fluor 647-labeled Cit-CII peptide onto HLA-DR4 (CLIP cleaved)
Description: (§1) The screening was made through two sets of HLA-DR/peptide-dependent assays: a peptide-dependent Homogeneous Time Resolved Fluorescence (HTRF) binding assay followed by an HLA-DR dependent, peptide-specific T cell functional assay (HLA-DR4-restricted peptide-specific T cell-based assay hybridoma assay). The HTRF binding assay was designed to measure the ability of the small molecule to inhibit the loading of a fluorescently labeled high-affinity peptide onto HLA-DR peptide binding groove. The peptide-specific T cell functional assay assesses T cell activation resulting from proper peptide presentation onto HLA-DR expressed on the surface of the antigen-presenting cells to the T cell and is used to screen compounds able to inhibit such HLA-DR/peptide-dependent T cell activation.
The HLA-DR4 HTRF assay is based on HTRF technology and designed to measure ability of compounds to prevent loading of high-affinity Alexa Fluor 647-labeled Citrullinated Collagen 111236-1249 peptide (named Cit-CII/AF647, aa1236-1249, LQYM-Cit-ADQAAGGLR; Alexa Fluor 647 dye commercially available from Invitrogen) onto HLA-DRB1*0401. The HTRF assay technology is based on the energy transfer between two fluorophores, a donor and an acceptor, when in close proximity. The HLA-DR4 protein construct was uniquely designed for this assay and has (i) the α and […] subunits fused to human Fc chains and (ii) the invariant chain-associated peptide (CLIP peptide, aa85-101), the universal moderate/low-affinity HLA-DR binder, attached to the beta chain through a HRV3C protease-cleavable linker.
Because of the low stability of peptide free HLA-DR4 heterodimer, the construct was purified and delivered with CLIP peptide attached to the N-terminal of the β chain. The HLA-DR4 heterodimer was pre-treated with 3 μL HRV3C protease (Novagen E71493-3) (˜2 U/μL) per mg of the cleavable protein to cleave CLIP peptide and incubated overnight (>16 hrs) at 4° C. This method yielded at least 80% cleavage and allowed the CLIP peptide to be potentially exchanged with the fluorescently labeled high affinity cit-CII1236-1249 peptide. A batch of […] protein with CLIP cleaved was prepared for multiple experiments and was stable for several months when stored at 4° C.
In this assay, anti-human Fc antibody labeled with Tb-Cryptate probe was used as the donor (commercially available from Cisbio—PAb Anti-human IgG-Tb Cryptate, Cat #61HFCTAB) and high affinity peptide Citrullinated CII (cit-CII) labeled with Alexa 647 fluorophore was utilized as the acceptor. Inhibitors of the exchange of the pre-cleaved CLIP peptide for the high affinity cit-CII1236-1249 peptide onto HLA-DRB1*04:01 caused a decrease in HTRF signal as measured by the ratio of the 665 nm/620 nm emitted signal. Screening compounds were robotically pre-dispensed (150 nL, Hummingbird, DigiLab/CyBio AG) onto black, round bottom, nontreated, 1536-well assay plates (Corning #3939), were incubated with 3 nM HLA-DR4 (with CLIP cleaved) plus 1 nM Human IgG-Tb (anti-Fc-Tb) Antibody for 45 min prior to addition of 40 nM Cit-CII peptide labeled with Alexa-647. The negative control was DMSO plus 1 nM Human IgG-Tb (anti-Fc-Tb) Antibody, incubated for 45 minutes before addition of 40 nM Cit-CII peptide labeled with Alexa-647. The positive control was DMSO plus 3 nM HLA-DR4 (with CLIP cleaved) plus 1 nM Human IgG-Tb (anti-Fc-Tb) Antibody with 40 nM Cit-CII peptide labeled with Alexa-647 added after a 45-minute incubation. Plates were centrifuged at 1000 rpm for 1 minute and then incubated at 37° C., at 90% relative humidity for 90 minutes. After incubation, plates were read on a spectrophotometer, the Pherastar FS (BMG Labtech), in HTRF mode. The HTRF ratio as well as percent inhibition was calculated. Curve fitting and IC50 calculation for dose response data was performed by Microsoft Excel, 3DX (Janssen proprietary software) or Graphpad Prism (Graphpad Software, San Diego, CA). […]

[1] = tested on: HLA-DR4 restricted mouse T cell hybridoma line (DR4.CII.36.8) with HLA-DRB1*04:01-expressing Boleth cells; assay: HLA-DR4-restricted peptide-specific T cell-based assay (hybridoma assay); conditions: 6 h, inhibition of IL-2 production, CII259-273 peptide presented by Boleth cells
Description: as §1
HLA-DR4-Restricted Peptide-Specific T Cell-Based Assay (Hybridoma Assay)
The hybridoma assay was used to measure compound inhibition of TL-2 production from an HLA-DR4 restricted mouse T cell hybridoma line (DR4.CII.36.8) that was antigen-specific for collagen II259-273 (CII259-273) peptide when presented with an HLA-DR4 expressing Antigen Presenting Cell (APC) cell line (i.e., Boleth).
To the HLA-DRB1*04:01-expressing B cell line (Boleth cell line from International Histocompatibility Working Group (IHWG), ref #IHW09031) was presented the collagen II 259-273 peptide (CII259-273, GIAGFKGEQGPKGEP) to mouse T cell hybridoma (DR4.CII.36.8 T cell hybridoma; clone 36.8, expressing a CII259-273-specific, HLA-DRB1*04:01-restricted T cell receptor). Upon proper CII259-273 peptide presentation, the T cell hybridoma was activated and thus produced IL-2 cytokine, whose level in the cell culture supernatant was detected using mouse IL-2 AlphaLISA kit (Perkin Elmer, Cat: AL511F).
This assay was performed in a 384-well plate (polypropylene V-bottom Greiner bio-one, ref #784075) by: (i) pre-incubation of 20 μL of 1.25 million/mL Boleth cells (25,000 cells) resuspended in DMEM/1% fetal calf serum (FCS; Gibco, ref #16140-071) with 20 μL of 2.5× final concentration of compound of interest in DMEM/1% serum/0.75% DMSO at 37° C. for 1 hr in the incubator, then (ii) 10 μL of 5 million/mL (50,000 cells) DR4.CII.36.8 T cell hybridoma cells resuspended in DMEM/1% FCS was added and incubated for 6 h at 37° C. in the incubator. Supernatant was then collected and mouse IL-2 detected using AlphaLISA kit (ref #AL511F). Compounds were tested in duplicate, with 8-point titration. Mean±SD of AlphaLISA units at each compound concentration was used for compound IC50 calculation. The negative control for this experiment was run without peptide stimulation and used a DMSO vehicle wherein no compound of interest was added. The positive control was run with peptide stimulation and used a DMSO vehicle wherein no compound of interest was added. Both the negative and positive controls were run in 8 replicates each. Curve fitting and IC50 calculation for dose response data was performed by GraphPad software 6 or higher (GraphPad Software, San Diego, CA). Dose response data was plotted versus the log of compound concentration and IC50 was determined using 4-parameter logistic (4-PL) curve fitting.

Compound	IC50 (HLA-DRB1*0401) [nM]	IC50 ([1]; Mus musculus, T-cell) [nM]	IC50 [1] [nM]
CC[C@@H]1CC(=O)c2ccc(O[C@H](c3ccncc3)c3ccc(C(N)=O)cc3)cc2O1 (single isomer, unassigned) [Example 41a, 4-((*S)—(((*R)-2-ethyl-4-oxochroman-7-yl)oxy)(pyridin-4-yl)methyl)benzamide]	1200	> 15000	
C[C@H]1COc2cc(O[C@@H](c3ccncc3)c3ccc(C(N)=O)cc3)ccc2C1=O (single isomer, unassigned) [Example 44c, 4-((*R)—(((*S)-3-Methyl-4-oxochroman-7-yl)oxy)(pyridin-4-yl)methyl)benzamide]	1300	> 15000	
C[C@H]1COc2cc(O[C@H](c3ccncc3)c3ccc(C(N)=O)cc3)ccc2C1=O (single isomer, unassigned) [Example 44d, 4-((*S)—(((*S)-3-Methyl-4-oxochroman-7-yl)oxy)(pyridin-4-yl)methyl)benzamide]	850	> 15000	
NC(=O)c1ccc([C@H](Oc2cc(F)c3c(c2)OCCC3=O)c2ccncc2)cc1 (single isomer, unassigned) [Example 51b, (*S)-4-(((5-Fluoro-4-oxochroman-7-yl)oxy)(pyridin-4-yl)methyl)benzamide]	3500	15000	
NC(=O)c1ccc([C@H](Oc2cc3c(cc2F)C(=O)CCO3)c2ccncc2)cc1 (single isomer, unassigned) [Example 52b, (*S)-4-(((6-Fluoro-4-oxochroman-7-yl)oxy)(pyridin-4-yl)methyl)benzamide]	300	8500	
Cc1c(O[C@H](c2ccc(Cl)cc2)c2ccc(C(N)=O)cc2)ccc2c1OCCC2=O (single isomer, unassigned) [Example 57b, (*S)-4-((4-chlorophenyl)((8-methyl-4-oxochroman-7-yl)oxy)methyl)benzamide]	2000	> 15000	
Cc1c(O[C@@H](c2ccc(C#N)cc2)c2ccc(C(N)=O)cc2)ccc2c1OCCC2=O (single isomer, unassigned) [Example 59b, (*S)-4-((4-cyanophenyl)((8-methyl-4-oxochroman-7-yl)oxy)methyl)benzamide]	1300	> 15000	
Cc1c(O[C@H](c2ccc(Cl)cc2)c2ccc(C(N)=O)cn2)ccc2c1OCCC2=O (single isomer, unassigned) [Example 63a, (*R)-6-((4-chlorophenyl)((8-methyl-4-oxochroman-7-yl)oxy)methyl)nicotinamide]	1600	> 15000	
Cc1c(O[C@H](c2ccc(C(N)=O)cc2)c2cccc[n+]2[O-])ccc2c1OCCC2=O (single isomer, unassigned) [Example 65a, (*R)-2-((4-carbamoylphenyl)((8-methyl-4-oxochroman-7-yl)oxy)methyl)pyridine 1-oxide]	30000		> 15000
Cc1c(O[C@H](c2ccc(F)cc2)c2ccc(C(N)=O)cc2)ccc2c1OCCC2=O (single isomer, unassigned) [Example 66b, (*S)-4-((4-Fluorophenyl)((8-methyl-4-oxochroman-7-yl)oxy)methyl)benzamide]	2400	> 15000	
Cc1c(O[C@@H](c2ccc(C(N)=O)cc2)c2cccc(F)c2)ccc2c1OCCC2=O (single isomer, unassigned) [Example 67b, (*S)-4-((3-Fluorophenyl)((8-methyl-4-oxochroman-7-yl)oxy)methyl)benzamide]	2200	> 15000	
Cc1c(O[C@@H](c2ccc(C(N)=O)cc2)c2ccccc2F)ccc2c1OCCC2=O (single isomer, unassigned) [Example 68b, (*S)-4-((2-Fluorophenyl)((8-methyl-4-oxochroman-7-yl)oxy)methyl)benzamide]	5400	> 15000	
Cc1c(O[C@@H](c2ccccc2)c2ccc(C(N)=O)cc2)ccc2c1OCCC2=O (single isomer, unassigned) [Example 69b, (*S)-4-(((8-Methyl-4-oxochroman-7-yl)oxy)(phenyl)methyl)benzamide]	2100	> 15000	
Cc1c(O[C@@H](c2ccncc2)c2cccc(CNC(N)=O)c2)ccc2c1OCCC2=O (single isomer, unassigned) [Example 81a, (*R)-1-(3-(((8-methyl-4-oxochroman-7-yl)oxy)(pyridin-4-yl)methyl)benzyl)urea]	690	15000	
COc1cc(C(N)=O)ccc1[C@H](Oc1ccc2c(c1C)OCCC2=O)c1ccncc1 (single isomer, unassigned) [Example 82a, (*R)-3-Methoxy-4-(((8-methyl-4-oxochroman-7-yl)oxy)(pyridin-4-yl)methyl)benzamide]	710	> 15000	
COc1cc(C(N)=O)ccc1[C@@H](Oc1ccc2c(c1C)OCCC2=O)c1ccncc1 (single isomer, unassigned) [Example 82b, (*S)-3-Methoxy-4-(((8-methyl-4-oxochroman-7-yl)oxy)(pyridin-4-yl)methyl)benzamide]	620	5700	
CCOc1cc(C(N)=O)ccc1[C@@H](Oc1ccc2c(c1C)OCCC2=O)c1ccncc1 (single isomer, unassigned) [Example 83b, (*S)-3-ethoxy-4-(((8-methyl-4-oxochroman-7-yl)oxy)(pyridin-4-yl)methyl)benzamide]	690	5000	
